Data taken from ChEMBL document CHEMBL1909046, “DrugMatrix in vitro pharmacology data”.

Experiments:
[1] = DRUGMATRIX: Serotonin (5-Hydroxytryptamine) 5-HT3 radioligand binding (ligand: [3H] GR-65630); type: cell membranes, Membrane; conditions: hek293; Not Active = under 50% inhibition at 10 µM
[2] = biological target: D(3) dopamine receptor (Homo sapiens, UniProt P35462); experiment: DRUGMATRIX: Dopamine D3 radioligand binding (ligand: [3H] Spiperone); type: cell membranes, CHO, Membrane
[3] = DRUGMATRIX: GABAA, Chloride Channel, TBOB radioligand binding (ligand: [3H] TBOB); type: cell membranes, Rattus norvegicus, Wistar, Cerebral cortex, Membrane; conditions: Not Active = under 50% inhibition at 10 µM
[4] = biological target: Melanocortin receptor 5 (Homo sapiens, UniProt P33032); type: cell membranes, HEK293, Membrane; also: in other assays of this panel Not Active means under 50% inhibition at 10 µM
Sequence of Melanocortin receptor 5 (P33032 whole entry): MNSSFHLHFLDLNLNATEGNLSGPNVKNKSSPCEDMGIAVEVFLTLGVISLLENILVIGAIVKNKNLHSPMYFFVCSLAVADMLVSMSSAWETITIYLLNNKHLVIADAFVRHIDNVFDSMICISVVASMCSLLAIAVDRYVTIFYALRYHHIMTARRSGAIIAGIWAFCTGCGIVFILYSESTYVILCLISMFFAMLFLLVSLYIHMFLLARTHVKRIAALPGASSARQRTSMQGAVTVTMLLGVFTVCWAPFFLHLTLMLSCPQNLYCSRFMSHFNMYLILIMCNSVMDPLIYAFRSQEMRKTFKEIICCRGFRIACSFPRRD

[5] = biological target: Kappa-type opioid receptor (Homo sapiens, UniProt P41145); experiment: DRUGMATRIX: Opiate kappa (OP2, KOP) radioligand binding (ligand: [3H] Diprenorphine); type: cell membranes, HEK293, Membrane; conditions: Not Active = under 50% inhibition at 10 µM
Sequence of Kappa-type opioid receptor (P41145 whole entry): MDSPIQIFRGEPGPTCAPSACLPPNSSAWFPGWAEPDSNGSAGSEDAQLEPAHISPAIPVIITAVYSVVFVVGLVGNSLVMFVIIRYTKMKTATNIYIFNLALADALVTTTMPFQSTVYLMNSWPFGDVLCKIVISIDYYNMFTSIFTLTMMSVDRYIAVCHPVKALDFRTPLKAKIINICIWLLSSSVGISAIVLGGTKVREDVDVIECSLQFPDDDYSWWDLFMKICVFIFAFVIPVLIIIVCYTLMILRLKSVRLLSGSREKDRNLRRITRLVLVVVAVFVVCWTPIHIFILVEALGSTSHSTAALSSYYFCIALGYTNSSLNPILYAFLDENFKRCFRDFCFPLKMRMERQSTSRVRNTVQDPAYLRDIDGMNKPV

Sequence of D(3) dopamine receptor (P35462 whole entry): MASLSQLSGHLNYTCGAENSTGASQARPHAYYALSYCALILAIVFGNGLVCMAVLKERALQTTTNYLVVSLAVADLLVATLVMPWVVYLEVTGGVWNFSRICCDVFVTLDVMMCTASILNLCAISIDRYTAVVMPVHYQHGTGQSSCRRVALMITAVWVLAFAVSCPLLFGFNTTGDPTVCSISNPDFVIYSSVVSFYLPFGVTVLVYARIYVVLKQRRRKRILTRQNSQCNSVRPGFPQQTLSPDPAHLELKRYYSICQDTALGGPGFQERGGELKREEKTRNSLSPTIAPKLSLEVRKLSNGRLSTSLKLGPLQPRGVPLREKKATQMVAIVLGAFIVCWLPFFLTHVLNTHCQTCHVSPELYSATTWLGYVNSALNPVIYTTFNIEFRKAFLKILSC

Compound	IC50 [1]	Ki [1]	IC50 ([2]; cho)	IC50 [3]	Ki [3]	IC50 ([4]; hek293)	IC50 ([5]; hek293)	IC50 ([2]; read-out: IC50)	Ki ([2]; read-out: Ki)	IC50 ([4]; read-out: IC50)	Ki ([4]; read-out: Ki)	Ki [5]	IC50 ([5]; read-out: IC50)	IC50 ([2]; cho, read-out: IC50)	Ki ([2]; cho, read-out: Ki)	Ki ([4]; hek293)	Ki ([2]; cho)
CCOC(N)=O	Not Active	Not Active	Not Active	Not Active	Not Active	Not Active	Not Active										
COc1ccc(CN2CCNCC2)c(OC)c1OC [TRIMETAZIDINE]	Not Active	Not Active	Not Active	Not Active	Not Active	Not Active	Not Active										
CC(=O)O[C@H]1C[C@@H]2CC[C@@H]3[C@H](CC[C@@]4(C)[C@H]3C[C@H]([N+]3(C)CCCCC3)[C@@H]4OC(C)=O)[C@@]2(C)C[C@@H]1N1CCCCC1.[Br-] [VECURONIUM BROMIDE]	Not Active	Not Active	Not Active	Not Active	Not Active	Not Active	Not Active										
C[C@@H]1C[C@H]2[C@@H]3CCC4=CC(=O)C=C[C@]4(C)C3=CC[C@]2(C)[C@H]1C(=O)CN1CCN(c2cc(N3CCCC3)nc(N3CCCC3)n2)CC1 [TIRILAZAD]	Not Active	Not Active	Not Active	Not Active	Not Active	Not Active	Not Active										
CC(C)OC(=O)C(C)(C)Oc1ccc(C(=O)c2ccc(Cl)cc2)cc1 [FENOFIBRATE]						Not Active	Not Active										
C[C@@H](O)[C@H]1C(=O)N2C(C(=O)O)=C(S[C@@H]3CN[C@H](C(=O)N(C)C)C3)[C@H](C)[C@H]12 [MEROPENEM]	Not Active	Not Active	Not Active	Not Active	Not Active	Not Active	Not Active										
CC[C@@H](CO)NC(=O)[C@@H]1C=C2c3cccc4c3c(cn4C)C[C@H]2N(C)C1 [METHYSERGIDE]						Not Active	Not Active	0.172 µM	0.059 µM								
CC(C)(C)NC[C@H](O)COc1nsnc1N1CCOCC1 [TIMOLOL]	Not Active	Not Active	Not Active	Not Active	Not Active	Not Active	Not Active										
CCN(CC)CC#CCOC(=O)C(O)(c1ccccc1)C1CCCCC1 (centres undefined) [OXYBUTYNIN]						Not Active	Not Active										
O=c1[nH]c2ccccc2n1CCCN1CCC(n2c(=O)[nH]c3cc(Cl)ccc32)CC1 [DOMPERIDONE]						Not Active											
CC1=C(CC(=O)O)c2cc(F)ccc2/C1=C\c1ccc(S(C)(=O)=O)cc1 [EXISULIND]	Not Active	Not Active	Not Active	Not Active	Not Active	Not Active	Not Active										
COc1ncnc(NS(=O)(=O)c2ccc(N)cc2)c1OC [SULFADOXINE]	Not Active	Not Active	Not Active	Not Active	Not Active	Not Active	Not Active										
CC(=O)Nc1nnc(S(N)(=O)=O)s1 [ACETAZOLAMIDE]			Not Active			Not Active	Not Active										
CO[C@H]1C[C@@H]2CC[C@@H](C)[C@@](O)(O2)C(=O)C(=O)N2CCCC[C@H]2C(=O)O[C@H]([C@H](C)C[C@@H]2CC[C@@H](O)[C@H](OC)C2)CC(=O)[C@H](C)/C=C(\C)[C@@H](O)[C@@H](OC)C(=O)[C@H](C)C[C@H](C)/C=C/C=C/C=C/1C [SIROLIMUS]	Not Active	Not Active	Not Active	Not Active	Not Active	Not Active	Not Active										
OCCN1CCN(CCCN2c3ccccc3Sc3ccc(C(F)(F)F)cc32)CC1 [FLUPHENAZINE]										9.52 µM	8.93 µM	9.89 µM	24.7 µM				
Cc1cn([C@H]2C[C@H](N=[N+]=[N-])[C@@H](CO)O2)c(=O)[nH]c1=O [ZIDOVUDINE]	Not Active	Not Active	Not Active	Not Active	Not Active	Not Active	Not Active										
THIMEROSAL	Not Active	Not Active		Not Active	Not Active	Not Active								0.085 µM	0.029 µM	Not Active	
NC[C@H]1O[C@H](O[C@H]2[C@H](O)[C@@H](O[C@H]3O[C@H](CO)[C@@H](O)[C@H](N)[C@H]3O)[C@H](N)C[C@@H]2N)[C@H](N)C[C@@H]1O [TOBRAMYCIN]	Not Active	Not Active	Not Active	Not Active	Not Active	Not Active	Not Active										
O=P(O)(O)C(O)(Cc1cccnc1)P(=O)(O)O [RISEDRONIC ACID]	Not Active	Not Active	Not Active	Not Active	Not Active	Not Active	Not Active										

Compound	IC50 [1]	Ki [1]	IC50 ([2]; cho)	IC50 [3]	Ki [3]	IC50 ([4]; hek293)	IC50 ([5]; hek293)	IC50 ([2]; read-out: IC50)	Ki ([2]; read-out: Ki)	IC50 ([4]; read-out: IC50)	Ki ([4]; read-out: Ki)	Ki [5]	IC50 ([5]; read-out: IC50)	IC50 ([2]; cho, read-out: IC50)	Ki ([2]; cho, read-out: Ki)	Ki ([4]; hek293)	Ki ([2]; cho)
Nc1ccc(S(=O)(=O)Nc2nccs2)cc1 [SULFATHIAZOLE]	Not Active	Not Active	Not Active	Not Active	Not Active	Not Active	Not Active										
Nc1ccc(S(=O)(=O)Nc2ncccn2)cc1 [SULFADIAZINE]	Not Active	Not Active	Not Active	Not Active	Not Active	Not Active	Not Active										
CN[C@@H]1[C@H](O)[C@H](NC)[C@H]2O[C@@]3(O)C(=O)C[C@@H](C)O[C@H]3O[C@@H]2[C@H]1O [SPECTINOMYCIN]	Not Active	Not Active	Not Active	Not Active	Not Active	Not Active	Not Active										
COc1cc(N)nc2[nH]c(-c3ccc(F)cc3)c(-c3ccncc3)c12	Not Active	Not Active	Not Active	Not Active	Not Active	Not Active	Not Active										
CN(CCOc1ccc(CC2SC(=O)NC2=O)cc1)c1ccccn1 (centres undefined) [ROSIGLITAZONE]	Not Active	Not Active	Not Active	Not Active	Not Active	Not Active	Not Active										
C=C(C)[C@H]1Cc2c(ccc3c2O[C@@H]2COc4cc(OC)c(OC)cc4[C@@H]2C3=O)O1 [ROTENONE]	Not Active	Not Active	Not Active	Not Active	Not Active	Not Active											
O=c1n(CCCN2CCN(c3cccc(Cl)c3)CC2)nc2ccccn12 [TRAZODONE]						Not Active	Not Active										
O=C(O)C(Cl)(Cl)Cl [TRICHLOROACETIC ACID]	Not Active	Not Active	Not Active	Not Active	Not Active	Not Active											
CNS(=O)(=O)Cc1ccc2[nH]cc(CCN(C)C)c2c1	Not Active	Not Active	Not Active	Not Active	Not Active	Not Active	Not Active										
CCCc1nn(C)c2c(=O)[nH]c(-c3cc(S(=O)(=O)N4CCN(C)CC4)ccc3OCC)nc12	Not Active	Not Active	Not Active	Not Active	Not Active	Not Active	Not Active										
Nc1nc2c(c(=O)[nH]1)N(C=O)C(CNc1ccc(C(=O)N[C@@H](CCC(=O)O)C(=O)O)cc1)CN2 (some centres undefined) [LEUCOVORIN]	Not Active	Not Active	Not Active	Not Active	Not Active	Not Active	Not Active										
CCS(=O)(=O)CCn1c([N+](=O)[O-])cnc1C [TINIDAZOLE]	Not Active	Not Active	Not Active	Not Active	Not Active	Not Active	Not Active										
C#CCN(C)[C@H](C)Cc1ccccc1 [SELEGILINE]	Not Active	Not Active	Not Active	Not Active	Not Active	Not Active	Not Active										
COc1cc(C(=O)NS(=O)(=O)c2ccccc2C)ccc1Cc1cn(C)c2ccc(NC(=O)OC3CCCC3)cc12 [ZAFIRLUKAST]	Not Active	Not Active	Not Active	Not Active	Not Active	Not Active	Not Active										
STANNOUS FLUORIDE	Not Active	Not Active	Not Active	Not Active	Not Active	Not Active										Not Active	Not Active
C[C@]12CC[C@H]3[C@@H](CCC4=CC(=O)CC[C@@]43C)[C@@H]1CC[C@@H]2O [TESTOSTERONE]	Not Active	Not Active	Not Active	Not Active	Not Active	Not Active	Not Active										
CN1C2CCCC1CC(NC(=O)c1nn(C)c3ccccc13)C2 (centres undefined) [GRANISETRON]			Not Active			Not Active	Not Active										
COc1ccc(/C=C/C(=O)Nc2ccccc2C(=O)O)cc1OC	Not Active	Not Active	Not Active	Not Active	Not Active	Not Active	Not Active										
